Results on 12 compounds are retold here after ChEMBL document CHEMBL4340534 (Bioorg Med Chem Lett, 2019).

One series has as its target DNA gyrase (Escherichia coli, UniProt P0AES4+P0AES6). Put plainly: Inhibition of Escherichia coli his-tagged DNA gyrase supercoiling activity using pBR322 DNA in presence of ATP incubated for 1 hr by H19 dye based high throughput DNA gyrase assay. The series is classed as protein-complex assay.
Series [1] has as its system Escherichia coli. Kind of series: Antibacterial activity against tolC deficient Escherichia coli Top10. Format: functional.
Series [2] concerns Escherichia coli. Put plainly: Antibacterial activity against tolC deficient Escherichia coli 7623. The series is classed as functional.
For series [3], the system named is Escherichia coli. Put plainly: Antibacterial activity against tolC deficient Escherichia coli Top10 harboring GyrB E793K mutant. Format: functional.
A further series concerns Acinetobacter baumannii. Kind of series: Antibacterial activity against Acinetobacter baumannii BM4454. Format: functional.
In another series the test system is Klebsiella pneumoniae. Kind of series: Antibacterial activity against Klebsiella pneumoniae 1161486. Format: functional.
Series [4] can be described thus: Cytotoxicity against mouse L5178Y cells (TK +/-) assessed as reduction in cell viability incubated for 72 hrs by Cell Titer-Glo assay. (ATP-based viability assays read luminescence as a measure of living cells.)
Series [5] relates to Escherichia coli. Put plainly: Antibacterial activity against Escherichia coli 7623. The series is classed as functional.
Series [6] concerns the target Sodium channel protein type 5 subunit alpha (Homo sapiens, UniProt Q14524). Put plainly: Inhibition of human NaV1.5 expressed in HEK293 cells assessed as decrease in sodium current amplitude at -120 mV holding potential by Qpatch assay. The series is classed as ADME, cell-based. In general terms: In patch-clamp work, channel activity is measured electrically.
Series [7] has as its target DNA topoisomerase 2-alpha (Homo sapiens, UniProt P11388). Put plainly: Inhibition of human DNA topoisomerase 2 alpha using interlinked kDNA as substrate after 30 mins by ethidium bromide staining-based agarose gel electrophoresis method.
In series [8] the test system is Escherichia coli. Kind of series: Inhibition of Escherichia coli DNA topoisomerase 4 assessed as induction of enzyme-mediated DNA cleavage breaks.
Series [9] concerns the target DNA gyrase (Klebsiella pneumoniae) (UniProt W1DID1+A0A080SQT2). Kind of series: Inhibition of Klebsiella pneumoniae DNA gyrase assessed as increase in single and double strand DNA cleavage products. The series is classed as protein-complex assay.
The nature of series [10]: Inhibition of Escherichia coli DNA topoisomerase 4 using interlinked kDNA as substrate after 30 mins by ethidium bromide staining-based agarose gel electrophoresis method.
In a further series the test system is Pseudomonas aeruginosa. Kind of series: Antibacterial activity against Pseudomonas aeruginosa. The series is classed as functional.

Each structure is given as a SMILES string. Values after ≈ are worked out from the molar mass of the structure shown. Active and inactive are the calls of the source.

Sodium channel protein type 5 subunit alpha, sequence (Q14524 whole entry): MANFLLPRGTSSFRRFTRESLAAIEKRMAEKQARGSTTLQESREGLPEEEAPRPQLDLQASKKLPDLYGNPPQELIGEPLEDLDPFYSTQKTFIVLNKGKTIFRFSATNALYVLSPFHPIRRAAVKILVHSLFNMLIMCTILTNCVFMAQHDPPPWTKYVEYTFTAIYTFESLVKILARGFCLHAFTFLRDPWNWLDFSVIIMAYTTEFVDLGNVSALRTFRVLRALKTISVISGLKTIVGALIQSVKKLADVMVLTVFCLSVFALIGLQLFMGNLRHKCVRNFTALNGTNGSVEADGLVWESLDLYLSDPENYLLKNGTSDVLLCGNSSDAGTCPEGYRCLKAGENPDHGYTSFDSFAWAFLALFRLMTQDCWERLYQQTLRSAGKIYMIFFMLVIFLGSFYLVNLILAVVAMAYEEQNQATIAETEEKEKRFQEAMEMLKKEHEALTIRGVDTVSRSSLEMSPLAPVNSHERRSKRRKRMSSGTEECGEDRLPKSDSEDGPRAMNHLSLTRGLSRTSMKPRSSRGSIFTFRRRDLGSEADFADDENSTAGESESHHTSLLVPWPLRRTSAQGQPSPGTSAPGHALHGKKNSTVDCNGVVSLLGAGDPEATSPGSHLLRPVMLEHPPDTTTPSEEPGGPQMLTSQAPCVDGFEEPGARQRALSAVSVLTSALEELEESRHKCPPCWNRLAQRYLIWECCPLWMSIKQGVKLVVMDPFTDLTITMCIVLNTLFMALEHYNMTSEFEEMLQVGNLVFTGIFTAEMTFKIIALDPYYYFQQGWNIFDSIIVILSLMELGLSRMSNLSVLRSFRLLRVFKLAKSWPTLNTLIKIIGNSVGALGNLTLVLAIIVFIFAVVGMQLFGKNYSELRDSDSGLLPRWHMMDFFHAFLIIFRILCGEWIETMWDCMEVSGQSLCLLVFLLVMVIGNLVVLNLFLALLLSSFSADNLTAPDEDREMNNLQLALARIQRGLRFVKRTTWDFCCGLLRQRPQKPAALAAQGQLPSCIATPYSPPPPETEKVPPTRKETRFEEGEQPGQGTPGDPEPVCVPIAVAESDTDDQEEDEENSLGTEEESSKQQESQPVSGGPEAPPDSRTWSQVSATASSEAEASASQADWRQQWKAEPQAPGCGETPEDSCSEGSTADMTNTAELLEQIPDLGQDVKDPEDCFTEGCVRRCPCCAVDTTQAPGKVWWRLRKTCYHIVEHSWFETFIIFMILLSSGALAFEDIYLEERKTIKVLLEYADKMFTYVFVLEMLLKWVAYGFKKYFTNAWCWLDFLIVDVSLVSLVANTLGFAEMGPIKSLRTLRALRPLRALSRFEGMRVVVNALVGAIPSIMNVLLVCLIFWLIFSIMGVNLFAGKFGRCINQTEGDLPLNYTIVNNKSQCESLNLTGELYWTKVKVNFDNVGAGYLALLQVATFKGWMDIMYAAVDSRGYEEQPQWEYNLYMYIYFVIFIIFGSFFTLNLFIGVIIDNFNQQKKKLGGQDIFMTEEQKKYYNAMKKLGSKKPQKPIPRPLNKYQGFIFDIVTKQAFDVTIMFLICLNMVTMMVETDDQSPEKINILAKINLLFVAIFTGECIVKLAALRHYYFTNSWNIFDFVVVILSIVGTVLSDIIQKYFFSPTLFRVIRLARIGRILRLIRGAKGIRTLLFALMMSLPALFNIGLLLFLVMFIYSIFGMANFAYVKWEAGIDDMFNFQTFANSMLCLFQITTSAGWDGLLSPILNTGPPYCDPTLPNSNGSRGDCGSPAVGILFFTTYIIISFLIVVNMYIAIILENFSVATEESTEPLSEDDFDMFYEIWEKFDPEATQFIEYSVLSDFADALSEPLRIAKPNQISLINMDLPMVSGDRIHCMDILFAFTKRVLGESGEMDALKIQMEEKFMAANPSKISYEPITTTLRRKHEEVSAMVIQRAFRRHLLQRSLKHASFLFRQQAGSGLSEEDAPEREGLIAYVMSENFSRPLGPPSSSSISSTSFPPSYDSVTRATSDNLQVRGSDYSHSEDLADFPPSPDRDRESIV
DNA topoisomerase 2-alpha, sequence (P11388 whole entry): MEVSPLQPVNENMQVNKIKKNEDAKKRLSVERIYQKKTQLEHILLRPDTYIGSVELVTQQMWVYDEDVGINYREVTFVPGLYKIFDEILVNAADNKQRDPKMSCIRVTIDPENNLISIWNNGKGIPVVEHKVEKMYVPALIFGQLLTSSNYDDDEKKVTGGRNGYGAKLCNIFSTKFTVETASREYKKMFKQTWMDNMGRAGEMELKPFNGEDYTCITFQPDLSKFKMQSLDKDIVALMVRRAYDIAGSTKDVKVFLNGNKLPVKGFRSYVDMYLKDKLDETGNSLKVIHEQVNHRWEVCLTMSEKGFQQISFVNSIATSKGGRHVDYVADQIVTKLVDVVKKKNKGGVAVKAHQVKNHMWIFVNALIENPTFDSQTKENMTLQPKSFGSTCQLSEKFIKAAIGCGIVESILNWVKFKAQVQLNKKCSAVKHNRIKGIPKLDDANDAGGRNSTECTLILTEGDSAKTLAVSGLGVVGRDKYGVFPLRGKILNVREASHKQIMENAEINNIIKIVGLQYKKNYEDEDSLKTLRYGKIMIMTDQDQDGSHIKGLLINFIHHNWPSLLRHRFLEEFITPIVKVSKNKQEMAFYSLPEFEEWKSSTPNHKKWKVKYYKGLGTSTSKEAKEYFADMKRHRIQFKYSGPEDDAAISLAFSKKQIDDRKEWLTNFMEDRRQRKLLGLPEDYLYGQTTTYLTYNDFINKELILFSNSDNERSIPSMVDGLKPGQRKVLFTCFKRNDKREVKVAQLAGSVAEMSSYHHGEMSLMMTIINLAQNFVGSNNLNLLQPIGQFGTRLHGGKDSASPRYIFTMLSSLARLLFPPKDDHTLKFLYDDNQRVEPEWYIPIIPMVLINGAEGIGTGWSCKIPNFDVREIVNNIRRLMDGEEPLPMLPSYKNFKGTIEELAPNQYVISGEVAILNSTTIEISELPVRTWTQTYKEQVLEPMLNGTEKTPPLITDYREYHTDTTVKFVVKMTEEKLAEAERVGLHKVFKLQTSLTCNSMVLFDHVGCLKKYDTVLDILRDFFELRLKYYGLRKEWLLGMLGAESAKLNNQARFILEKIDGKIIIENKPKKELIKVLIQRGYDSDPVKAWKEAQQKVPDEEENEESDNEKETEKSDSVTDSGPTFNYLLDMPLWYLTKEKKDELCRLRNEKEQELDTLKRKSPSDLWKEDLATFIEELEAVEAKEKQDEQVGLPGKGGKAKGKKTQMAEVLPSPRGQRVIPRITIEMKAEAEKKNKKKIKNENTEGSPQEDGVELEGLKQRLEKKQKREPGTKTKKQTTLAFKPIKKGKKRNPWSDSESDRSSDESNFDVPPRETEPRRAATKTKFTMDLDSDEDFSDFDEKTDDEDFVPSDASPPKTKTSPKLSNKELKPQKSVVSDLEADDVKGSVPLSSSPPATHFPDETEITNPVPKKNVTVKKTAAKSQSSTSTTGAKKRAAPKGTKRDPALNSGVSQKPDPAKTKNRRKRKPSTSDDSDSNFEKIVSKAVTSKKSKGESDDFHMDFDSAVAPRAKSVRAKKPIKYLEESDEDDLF

With `NC[C@H](Nc1nccc2ccc(-c3ccccc3Cl)cc12)c1ccccc1`, the IC50 on DNA gyrase was found to be 10000 nM. Further, the MIC against Escherichia coli [1] is 2 µg/mL (≈ 5.35 µM); with Escherichia coli [2], 2 µg/mL (≈ 5.35 µM); against Escherichia coli [3] it was 2 µg/mL (≈ 5.35 µM); with Acinetobacter baumannii, 32 µg/mL (≈ 85.6 µM); with Klebsiella pneumoniae, 32 µg/mL (≈ 85.6 µM); against Escherichia coli [5], 64 µg/mL (≈ 171 µM). Further, the CC50 at 72 h in series [4] (L5178Y cells (TK +/-)) is 3 µg/mL (≈ 8.02 µM).
Consider `NC[C@H](Oc1noc2ncc(-c3ccccc3Cl)cc12)c1ccccc1`, for which the IC50 at DNA gyrase amounted to 500 nM; in series [6] it was 24 µM. For the same compound, the MIC came out at 1 µg/mL (≈ 2.73 µM) in the series on Escherichia coli [1]; 1 µg/mL (≈ 2.73 µM) against Escherichia coli [2]; 16 µg/mL (≈ 43.7 µM) in the series with Escherichia coli [3]; 64 µg/mL (≈ 175 µM) against Acinetobacter baumannii; 64 µg/mL (≈ 175 µM) with Escherichia coli [5]. For the same compound, the CC50 at 72 h in series [4] (L5178Y cells (TK +/-)) stood at 20 µg/mL (≈ 54.7 µM).
In the case of `NC[C@H](Oc1noc2ccc(-c3ccccc3Cl)cc12)c1ccccc1`, the IC50 at DNA gyrase came to 160 nM; in series [7] it was 210 µM; in series [10], 90 µM; in [6], 22 µM. For the same compound, the MIC against Escherichia coli [1] is no more than 0.125 µg/mL; in the series on Escherichia coli [2] it was no more than 0.125 µg/mL; against Escherichia coli [3] it was 2 µg/mL (≈ 5.48 µM); against Acinetobacter baumannii, 8 µg/mL (≈ 21.9 µM); in the series on Klebsiella pneumoniae, no less than 128 µg/mL; in the series with Pseudomonas aeruginosa, no less than 128 µg/mL. Moreover, the MIC against Escherichia coli [5] lay in the range of 8 to 16 µg/mL (≈ 21.9 to 43.9 µM). For the same compound, the inhibition result (in the series on Escherichia coli [8]; in series [9]) was “Active” in each case. For the same compound, the CC50 at 72 h in series [4] (l5178y) was 10 µg/mL (≈ 27.4 µM).
Regarding `Cn1nc(O[C@@H](CN)c2ccccc2)c2cc(-c3ccccc3Cl)ccc21`, the IC50 on DNA gyrase came to 5000 nM. Moreover, the MIC with Escherichia coli [1] is 2 µg/mL (≈ 5.29 µM); against Escherichia coli [2] it was 2 µg/mL (≈ 5.29 µM); with Escherichia coli [3], 2 µg/mL (≈ 5.29 µM); against Acinetobacter baumannii, 64 µg/mL (≈ 169 µM); in the series on Klebsiella pneumoniae, greater than 128 µg/mL; against Escherichia coli [5] it was greater than 128 µg/mL.
Consider `Cn1nc(NC(CN)c2ccccc2)c2cc(-c3ccccc3Cl)ccc21` (configuration not stated), for which the IC50 at DNA gyrase was 7900 nM. Further, the MIC is 4 µg/mL (≈ 10.6 µM) in the series on Escherichia coli [1]; 4 µg/mL (≈ 10.6 µM) against Escherichia coli [2]; 4 µg/mL (≈ 10.6 µM) in the series with Escherichia coli [3]; 128 µg/mL (≈ 340 µM) in the series with Acinetobacter baumannii; greater than 128 µg/mL in the series on Klebsiella pneumoniae; greater than 128 µg/mL in the series on Escherichia coli [5]. Further, the CC50 at 72 h in series [4] (L5178Y cells (TK +/-)) is 5 µg/mL (≈ 13.3 µM).
Turning to `NC[C@H](Oc1n[nH]c2ccc(-c3ccccc3Cl)cc12)c1ccccc1`, on DNA gyrase, the IC50 turned out to be 1600 nM. The MIC against Escherichia coli [1] is 2 µg/mL (≈ 5.5 µM); against Escherichia coli [2], 2 µg/mL (≈ 5.5 µM); in the series with Escherichia coli [3], 2 µg/mL (≈ 5.5 µM); against Acinetobacter baumannii, 32 µg/mL (≈ 87.9 µM); with Klebsiella pneumoniae, 32 µg/mL (≈ 87.9 µM); in the series on Escherichia coli [5], 32 µg/mL (≈ 87.9 µM). In addition, the CC50 at 72 h in series [4] (L5178Y cells (TK +/-)) turned out to be 3 µg/mL (≈ 8.25 µM).
Consider `Cc1sc(-c2ccccc2Cl)cc1C(=O)N[C@@H](CN)c1ccccc1`, for which the IC50 at DNA gyrase worked out at 40 nM; in [6], 13 µM. In addition, the MIC in the series with Escherichia coli [1] is no more than 0.125 µg/mL; against Escherichia coli [2] it was no more than 0.125 µg/mL; in the series on Escherichia coli [3] it was 4 µg/mL (≈ 10.8 µM); with Acinetobacter baumannii, 4 µg/mL (≈ 10.8 µM); in the series with Klebsiella pneumoniae it was 32 µg/mL (≈ 86.3 µM); with Escherichia coli [5], 8 µg/mL (≈ 21.6 µM). In addition, in series [4] (l5178y), the CC50 at 72 h was determined as 5 µg/mL (≈ 13.5 µM).
`NCC(Oc1noc2ccc(-c3ccccc3Cl)cc12)c1ccccn1` (configuration not stated): the IC50 on DNA gyrase was found to be 500 nM. For the same compound, the MIC in the series on Escherichia coli [1] was 0.25 µg/mL (≈ 0.683 µM); in the series on Escherichia coli [2] it was 0.25 µg/mL (≈ 0.683 µM); in the series on Escherichia coli [3], 8 µg/mL (≈ 21.9 µM); against Acinetobacter baumannii, 32 µg/mL (≈ 87.5 µM); in the series on Escherichia coli [5] it was 64 µg/mL (≈ 175 µM). The CC50 at 72 h in series [4] (L5178Y cells (TK +/-)) was determined as 3 µg/mL (≈ 8.2 µM).
With `NC[C@H](Oc1noc2ccc(-c3ccccc3Cl)nc12)c1ccccc1`, the IC50 at DNA gyrase came to 1600 nM; in series [6], 16 µM. In addition, the MIC is 8 µg/mL (≈ 21.9 µM) in the series with Escherichia coli [1]; 4 µg/mL (≈ 10.9 µM) with Escherichia coli [2]; 16 µg/mL (≈ 43.7 µM) against Escherichia coli [3]; greater than 128 µg/mL with Acinetobacter baumannii; greater than 128 µg/mL against Escherichia coli [5]. Moreover, in [4] (l5178y), the CC50 at 72 h is 5 µg/mL (≈ 13.7 µM).
Take `NC[C@@H](c1ccccc1)n1cnc2c(-c3ccccc3Cl)csc2c1=O`: the IC50 on DNA gyrase was 2000 nM. The MIC is 2 µg/mL (≈ 5.24 µM) against Escherichia coli [1]; 2 to 4 µg/mL (≈ 5.24 to 10.5 µM) in the series with Escherichia coli [2]; 16 µg/mL (≈ 41.9 µM) against Escherichia coli [3]; greater than 128 µg/mL against Acinetobacter baumannii; greater than 128 µg/mL against Klebsiella pneumoniae; greater than 128 µg/mL in the series with Escherichia coli [5]. Besides, in [4] (L5178Y cells (TK +/-)), the CC50 at 72 h is 16 µg/mL (≈ 41.9 µM).
Consider `NCC(Nc1n[nH]c2ccc(-c3ccccc3Cl)cc12)c1ccccc1` (configuration not stated), for which the IC50 at DNA gyrase is 3200 nM. Further, the MIC is 4 µg/mL (≈ 11 µM) against Escherichia coli [1]; 4 µg/mL (≈ 11 µM) against Escherichia coli [2]; 4 µg/mL (≈ 11 µM) with Escherichia coli [3]; 64 µg/mL (≈ 176 µM) with Acinetobacter baumannii; 64 µg/mL (≈ 176 µM) in the series on Klebsiella pneumoniae; 128 µg/mL (≈ 353 µM) against Escherichia coli [5]. In series [4] (L5178Y cells (TK +/-)), the CC50 at 72 h was found to be 5 µg/mL (≈ 13.8 µM).
For the compound `N=C(N)NC[C@H](Oc1noc2ccc(-c3ccccc3Cl)cc12)c1ccccc1`, the half-maximal inhibitory concentration (IC50) at DNA gyrase came out at 160 nM. Further, the MIC in the series with Escherichia coli [1] was 0.25 µg/mL (≈ 0.614 µM); in the series on Escherichia coli [2], 0.25 µg/mL (≈ 0.614 µM); in the series on Escherichia coli [3], 0.5 µg/mL (≈ 1.23 µM); with Acinetobacter baumannii it was 4 µg/mL (≈ 9.83 µM); in the series on Klebsiella pneumoniae it was 16 µg/mL (≈ 39.3 µM); with Pseudomonas aeruginosa it was 16 µg/mL (≈ 39.3 µM). Besides, in the series with Escherichia coli [5], the MIC was 8 µg/mL (≈ 19.7 µM). For the same compound, in series [4] (l5178y), the cytotoxic concentration (CC50) at 72 h worked out at 11 µg/mL (≈ 27 µM).

In general, IC50 refers to the concentration that inhibits the measured activity by half. The MIC is the smallest concentration in the dilution series that meets the test's criterion for growth inhibition. Low readings indicate a more susceptible organism, high ones a less susceptible organism. As usually defined, the CC50 is the concentration at which the toxic effect on the cells reaches its halfway point.
